For experiment [1], the target named is T1, Cytoplasmic tyrosine-protein kinase BMX (Homo sapiens) (UniProt P51813).
T1 sequence (whole entry): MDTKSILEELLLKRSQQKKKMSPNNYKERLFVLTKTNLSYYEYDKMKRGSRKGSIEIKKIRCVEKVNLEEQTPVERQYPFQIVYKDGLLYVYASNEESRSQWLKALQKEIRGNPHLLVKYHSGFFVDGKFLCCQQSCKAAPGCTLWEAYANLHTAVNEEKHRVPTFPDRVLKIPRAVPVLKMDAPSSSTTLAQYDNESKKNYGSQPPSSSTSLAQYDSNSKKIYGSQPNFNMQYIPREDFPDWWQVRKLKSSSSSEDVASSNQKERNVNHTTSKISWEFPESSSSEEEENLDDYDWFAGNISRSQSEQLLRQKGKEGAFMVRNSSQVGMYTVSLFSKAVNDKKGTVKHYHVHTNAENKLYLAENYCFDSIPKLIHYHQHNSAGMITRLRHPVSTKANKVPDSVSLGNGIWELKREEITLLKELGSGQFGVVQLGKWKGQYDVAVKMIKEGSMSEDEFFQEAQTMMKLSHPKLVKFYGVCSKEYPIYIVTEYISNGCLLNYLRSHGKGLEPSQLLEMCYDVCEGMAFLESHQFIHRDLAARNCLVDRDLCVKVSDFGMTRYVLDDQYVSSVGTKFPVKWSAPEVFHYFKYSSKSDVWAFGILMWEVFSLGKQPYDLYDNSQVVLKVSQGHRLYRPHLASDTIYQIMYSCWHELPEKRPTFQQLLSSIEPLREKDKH
As to the kind of experiment: Selectivity interaction (Kinase panel (Z-LYTE Assay)) EUB0001632a BMX. The conditions noted are these: at 10 µM.

Experiment [2] addresses RAC-gamma serine/threonine-protein kinase (Homo sapiens, UniProt Q9Y243). As to the kind of experiment: Selectivity interaction (KinomeScan (DiscoverX)) EUB0000595a AKT3. The settings on record: at 10 µM.
In experiment [3] the target is T2, Serine/threonine-protein kinase Nek9 (Homo sapiens) (UniProt Q8TD19).
T2 sequence (whole entry): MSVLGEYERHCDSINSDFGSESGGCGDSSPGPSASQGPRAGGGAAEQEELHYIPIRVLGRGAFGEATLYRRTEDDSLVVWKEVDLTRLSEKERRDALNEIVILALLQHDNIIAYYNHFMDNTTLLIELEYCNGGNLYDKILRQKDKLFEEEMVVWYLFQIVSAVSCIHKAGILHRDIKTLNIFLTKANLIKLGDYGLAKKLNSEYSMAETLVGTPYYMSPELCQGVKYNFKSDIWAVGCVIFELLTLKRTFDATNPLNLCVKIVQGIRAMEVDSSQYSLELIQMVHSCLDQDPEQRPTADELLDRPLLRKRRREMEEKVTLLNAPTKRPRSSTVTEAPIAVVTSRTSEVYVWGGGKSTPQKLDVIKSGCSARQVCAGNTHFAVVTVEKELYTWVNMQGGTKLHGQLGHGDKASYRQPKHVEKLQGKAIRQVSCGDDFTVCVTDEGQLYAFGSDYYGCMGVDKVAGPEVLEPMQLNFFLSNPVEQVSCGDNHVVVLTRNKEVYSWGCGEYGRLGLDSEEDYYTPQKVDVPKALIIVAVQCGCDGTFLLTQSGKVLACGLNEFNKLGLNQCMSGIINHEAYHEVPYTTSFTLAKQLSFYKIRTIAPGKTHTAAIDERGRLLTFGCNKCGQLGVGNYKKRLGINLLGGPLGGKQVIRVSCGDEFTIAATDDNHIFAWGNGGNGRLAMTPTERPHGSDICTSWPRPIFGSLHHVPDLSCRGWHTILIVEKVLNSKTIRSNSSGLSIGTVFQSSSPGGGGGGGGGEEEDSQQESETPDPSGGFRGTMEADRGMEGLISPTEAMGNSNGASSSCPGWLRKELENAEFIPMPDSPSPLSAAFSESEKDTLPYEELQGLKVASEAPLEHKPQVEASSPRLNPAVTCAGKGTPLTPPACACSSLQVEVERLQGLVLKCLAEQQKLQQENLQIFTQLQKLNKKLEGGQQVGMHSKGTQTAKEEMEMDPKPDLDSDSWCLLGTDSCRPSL
The experiment is described as follows: Selectivity interaction (ActivX KiNativ screen (ex vivo kinase selectivity in human PBMCs)) EUB0001619a NEK9. Format: cell-based. The conditions noted are these: PBMC, at 1 µM.

Experiment [4] deals with eIF-2-alpha kinase GCN2 (Homo sapiens), Q9P2K8 [S808G]. The experiment is described as follows: Selectivity interaction (KinomeScan (DiscoverX)) EUB0000666a EIF2AK4. The settings on record: at 10 µM.
The target in experiment [5] is Cyclin-dependent kinase-like 3 (Homo sapiens) (UniProt Q8IVW4). As to the kind of experiment: Selectivity interaction (KinomeScan (DiscoverX)) EUB0000607a CDKL3. The settings on record: at 10 µM.
Experiment [6] has as its target Serine/threonine-protein kinase 38-like (Homo sapiens) (UniProt Q9Y2H1). As to the kind of experiment: Selectivity interaction (KinomeScan (DiscoverX)) EUB0000607a STK38L. The conditions noted are these: at 10 µM.
Experiment [7] addresses Tyrosine-protein kinase ABL1 (Homo sapiens, UniProt P00519). As to the kind of experiment: Selectivity interaction (Kinase panel (Invitrogen)) EUB0000639a ABL1. The conditions noted are these: at 200 nM.
For experiment [8], the target named is Tyrosine-protein kinase Lyn (Homo sapiens, UniProt P07948). The experiment is described as follows: Selectivity interaction (ActivX KiNativ screen (kinase selectivity in THP-1 cell lysates)) EUB0000639a LYN. It is filed as subcellular. The settings on record: lysate.
The target in experiment [9] is Serine/threonine-protein kinase 16 (Homo sapiens, UniProt O75716). The experiment is described as follows: Selectivity interaction (ActivX KiNativ screen (kinase selectivity in THP-1 cell lysates)) EUB0000639a STK16. The conditions noted are these: lysate, at 0.04 µM. It is filed as subcellular.
Experiment [10] addresses Tyrosine-protein kinase JAK2 (Homo sapiens, UniProt O60674). The experiment is described as follows: Selectivity interaction (KinomeScan (DiscoverX)) EUB0000655a JAK2. The settings on record: at 10 µM.
Experiment [11] deals with Ephrin type-A receptor 5 (Homo sapiens) (UniProt P54756). The experiment is described as follows: Selectivity interaction (KinomeScan (DiscoverX)) EUB0000618a EPHA5. The settings on record: at 10 µM.
Experiment [12] addresses Serine/threonine-protein kinase N2 (Homo sapiens, UniProt Q16513). As to the kind of experiment: Selectivity interaction (KinomeScan (DiscoverX)) EUB0000092b PKN2. The settings on record: at 10 µM.
The target of experiment [13] is Dual specificity protein kinase CLK2 (Homo sapiens, UniProt P49760). The experiment is described as follows: Selectivity interaction (KinomeScan (DiscoverX)) EUB0000229b CLK2. The conditions noted are these: at 10 µM.
Sequence of Dual specificity protein kinase CLK2 (P49760 whole entry, looked up): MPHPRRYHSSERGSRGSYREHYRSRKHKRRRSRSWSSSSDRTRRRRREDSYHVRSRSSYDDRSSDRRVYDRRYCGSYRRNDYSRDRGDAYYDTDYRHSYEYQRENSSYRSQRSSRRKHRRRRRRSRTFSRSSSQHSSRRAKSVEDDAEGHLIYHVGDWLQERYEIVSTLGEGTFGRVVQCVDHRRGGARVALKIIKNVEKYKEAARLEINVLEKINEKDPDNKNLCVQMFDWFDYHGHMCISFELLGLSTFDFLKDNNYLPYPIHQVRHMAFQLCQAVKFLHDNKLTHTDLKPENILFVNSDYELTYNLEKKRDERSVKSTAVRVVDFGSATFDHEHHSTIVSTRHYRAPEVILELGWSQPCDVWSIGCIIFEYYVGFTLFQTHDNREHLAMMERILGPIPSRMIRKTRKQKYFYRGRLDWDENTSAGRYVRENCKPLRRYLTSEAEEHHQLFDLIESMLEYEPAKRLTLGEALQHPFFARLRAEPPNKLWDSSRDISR

Sequence of Tyrosine-protein kinase Lyn (P07948 2-512 limits assumed): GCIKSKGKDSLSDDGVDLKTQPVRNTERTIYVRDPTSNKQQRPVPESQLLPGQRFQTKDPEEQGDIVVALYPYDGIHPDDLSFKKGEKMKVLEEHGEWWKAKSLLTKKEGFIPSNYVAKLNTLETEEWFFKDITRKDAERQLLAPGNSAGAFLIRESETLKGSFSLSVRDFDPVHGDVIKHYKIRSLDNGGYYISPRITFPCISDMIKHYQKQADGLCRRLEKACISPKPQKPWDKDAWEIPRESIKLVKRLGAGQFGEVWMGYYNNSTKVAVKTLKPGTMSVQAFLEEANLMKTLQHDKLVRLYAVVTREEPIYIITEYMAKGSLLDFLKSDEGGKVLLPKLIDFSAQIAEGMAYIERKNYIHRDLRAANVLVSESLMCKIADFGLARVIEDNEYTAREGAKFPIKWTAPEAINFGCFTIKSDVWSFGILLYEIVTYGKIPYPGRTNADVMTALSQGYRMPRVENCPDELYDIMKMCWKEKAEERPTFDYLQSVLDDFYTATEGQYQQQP
Sequence of Tyrosine-protein kinase ABL1 (P00519 whole entry): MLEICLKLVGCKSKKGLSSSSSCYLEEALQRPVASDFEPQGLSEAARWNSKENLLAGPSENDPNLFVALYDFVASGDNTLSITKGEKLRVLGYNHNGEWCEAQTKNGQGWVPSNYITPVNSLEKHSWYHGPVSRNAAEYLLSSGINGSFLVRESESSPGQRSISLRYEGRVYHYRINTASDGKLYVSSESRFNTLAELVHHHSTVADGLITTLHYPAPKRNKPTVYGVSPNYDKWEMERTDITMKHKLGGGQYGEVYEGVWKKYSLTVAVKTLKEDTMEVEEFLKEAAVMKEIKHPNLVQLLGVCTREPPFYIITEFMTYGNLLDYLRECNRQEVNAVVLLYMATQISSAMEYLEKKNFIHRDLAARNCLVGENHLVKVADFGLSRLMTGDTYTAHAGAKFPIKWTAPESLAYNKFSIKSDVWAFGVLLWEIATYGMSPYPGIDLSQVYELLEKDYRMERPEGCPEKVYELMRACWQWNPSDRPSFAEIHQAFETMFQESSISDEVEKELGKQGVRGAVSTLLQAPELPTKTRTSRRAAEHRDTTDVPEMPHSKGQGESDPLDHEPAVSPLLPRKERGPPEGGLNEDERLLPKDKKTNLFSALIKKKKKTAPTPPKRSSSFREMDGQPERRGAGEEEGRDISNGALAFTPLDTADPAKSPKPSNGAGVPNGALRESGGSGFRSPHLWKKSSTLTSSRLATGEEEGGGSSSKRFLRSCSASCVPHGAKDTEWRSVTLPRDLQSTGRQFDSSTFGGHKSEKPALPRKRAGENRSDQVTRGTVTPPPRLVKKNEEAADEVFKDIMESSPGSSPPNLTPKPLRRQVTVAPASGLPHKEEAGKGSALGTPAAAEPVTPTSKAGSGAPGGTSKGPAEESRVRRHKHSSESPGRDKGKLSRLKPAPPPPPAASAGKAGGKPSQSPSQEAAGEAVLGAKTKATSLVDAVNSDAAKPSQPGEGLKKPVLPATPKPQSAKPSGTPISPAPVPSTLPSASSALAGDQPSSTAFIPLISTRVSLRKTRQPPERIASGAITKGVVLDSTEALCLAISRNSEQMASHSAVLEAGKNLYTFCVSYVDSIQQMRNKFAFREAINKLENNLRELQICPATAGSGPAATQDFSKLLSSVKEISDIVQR
Sequence of RAC-gamma serine/threonine-protein kinase (Q9Y243 whole entry): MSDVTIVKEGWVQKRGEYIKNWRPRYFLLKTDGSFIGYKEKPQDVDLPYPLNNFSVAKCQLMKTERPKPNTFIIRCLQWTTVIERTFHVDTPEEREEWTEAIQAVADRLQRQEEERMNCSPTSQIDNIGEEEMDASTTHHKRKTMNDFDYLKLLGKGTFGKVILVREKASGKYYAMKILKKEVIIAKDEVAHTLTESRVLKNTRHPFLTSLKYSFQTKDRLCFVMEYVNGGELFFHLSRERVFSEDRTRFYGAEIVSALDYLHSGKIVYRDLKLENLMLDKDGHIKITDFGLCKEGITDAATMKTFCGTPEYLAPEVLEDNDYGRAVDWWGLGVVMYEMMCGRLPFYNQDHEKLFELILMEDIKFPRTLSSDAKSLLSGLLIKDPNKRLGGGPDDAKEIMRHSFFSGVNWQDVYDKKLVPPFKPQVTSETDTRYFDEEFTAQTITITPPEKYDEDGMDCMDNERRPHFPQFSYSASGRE
Sequence of Ephrin type-A receptor 5 (Homo sapiens) (P54756 whole entry): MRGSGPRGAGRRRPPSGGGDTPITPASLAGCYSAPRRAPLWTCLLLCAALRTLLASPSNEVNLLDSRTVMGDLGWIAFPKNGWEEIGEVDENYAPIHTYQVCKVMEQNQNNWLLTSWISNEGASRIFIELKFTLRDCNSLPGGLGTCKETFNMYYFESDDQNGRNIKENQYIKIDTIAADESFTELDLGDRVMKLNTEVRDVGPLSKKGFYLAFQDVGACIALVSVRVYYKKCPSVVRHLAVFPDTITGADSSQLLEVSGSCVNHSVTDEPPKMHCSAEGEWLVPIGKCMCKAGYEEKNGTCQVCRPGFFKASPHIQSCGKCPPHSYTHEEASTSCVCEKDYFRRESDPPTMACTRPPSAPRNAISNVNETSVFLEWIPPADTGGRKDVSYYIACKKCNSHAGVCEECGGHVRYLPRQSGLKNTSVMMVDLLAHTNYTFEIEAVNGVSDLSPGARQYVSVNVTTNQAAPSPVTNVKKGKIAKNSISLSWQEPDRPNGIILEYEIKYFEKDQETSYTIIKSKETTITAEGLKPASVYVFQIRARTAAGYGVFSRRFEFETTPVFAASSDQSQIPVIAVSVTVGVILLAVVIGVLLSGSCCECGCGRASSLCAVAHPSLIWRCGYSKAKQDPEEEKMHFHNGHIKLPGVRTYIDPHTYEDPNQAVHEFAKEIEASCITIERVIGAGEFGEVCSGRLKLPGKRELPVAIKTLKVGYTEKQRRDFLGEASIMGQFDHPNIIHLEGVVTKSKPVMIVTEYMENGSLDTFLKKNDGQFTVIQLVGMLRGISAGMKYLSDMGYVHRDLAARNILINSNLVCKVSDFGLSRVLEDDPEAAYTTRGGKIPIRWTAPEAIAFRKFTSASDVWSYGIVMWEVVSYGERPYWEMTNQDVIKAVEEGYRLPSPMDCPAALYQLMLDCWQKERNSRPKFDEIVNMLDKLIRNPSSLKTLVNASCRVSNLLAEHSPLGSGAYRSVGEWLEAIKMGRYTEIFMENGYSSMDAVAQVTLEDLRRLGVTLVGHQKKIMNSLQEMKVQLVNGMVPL
Sequence of Serine/threonine-protein kinase N2 (Q16513 whole entry, looked up): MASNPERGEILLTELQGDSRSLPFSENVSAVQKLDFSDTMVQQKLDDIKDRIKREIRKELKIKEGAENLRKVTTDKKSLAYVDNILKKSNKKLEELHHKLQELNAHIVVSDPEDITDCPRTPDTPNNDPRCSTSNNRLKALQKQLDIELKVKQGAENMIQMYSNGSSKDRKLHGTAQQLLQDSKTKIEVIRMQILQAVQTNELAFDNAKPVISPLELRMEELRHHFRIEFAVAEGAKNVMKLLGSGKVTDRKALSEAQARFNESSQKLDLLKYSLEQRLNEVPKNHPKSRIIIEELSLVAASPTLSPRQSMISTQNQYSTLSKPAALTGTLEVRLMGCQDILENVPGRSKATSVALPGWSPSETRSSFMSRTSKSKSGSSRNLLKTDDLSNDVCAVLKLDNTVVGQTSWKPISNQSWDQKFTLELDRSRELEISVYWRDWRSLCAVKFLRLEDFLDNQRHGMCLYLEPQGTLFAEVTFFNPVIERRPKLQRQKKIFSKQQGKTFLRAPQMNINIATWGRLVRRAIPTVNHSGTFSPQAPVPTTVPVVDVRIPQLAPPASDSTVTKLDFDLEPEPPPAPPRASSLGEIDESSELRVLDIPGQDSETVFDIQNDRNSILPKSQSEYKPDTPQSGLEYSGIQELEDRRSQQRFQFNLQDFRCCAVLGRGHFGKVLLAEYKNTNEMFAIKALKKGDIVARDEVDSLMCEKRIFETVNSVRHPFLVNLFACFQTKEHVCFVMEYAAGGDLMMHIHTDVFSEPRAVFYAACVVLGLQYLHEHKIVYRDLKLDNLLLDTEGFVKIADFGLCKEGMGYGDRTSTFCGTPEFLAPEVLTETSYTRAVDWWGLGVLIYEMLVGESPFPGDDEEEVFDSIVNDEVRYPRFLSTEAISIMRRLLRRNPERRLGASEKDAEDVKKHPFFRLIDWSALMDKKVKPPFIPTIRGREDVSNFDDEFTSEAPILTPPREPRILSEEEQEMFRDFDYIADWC
Sequence of Serine/threonine-protein kinase 16 (O75716 whole entry): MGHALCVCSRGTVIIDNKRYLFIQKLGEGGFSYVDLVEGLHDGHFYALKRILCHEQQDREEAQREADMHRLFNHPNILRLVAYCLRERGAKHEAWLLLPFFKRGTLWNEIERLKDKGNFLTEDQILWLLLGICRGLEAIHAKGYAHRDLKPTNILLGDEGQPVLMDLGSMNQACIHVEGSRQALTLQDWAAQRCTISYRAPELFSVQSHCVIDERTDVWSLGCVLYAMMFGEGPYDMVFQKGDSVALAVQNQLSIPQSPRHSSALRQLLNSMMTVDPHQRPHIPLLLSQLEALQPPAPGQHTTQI

Turning to `Cn1cc(-n2cnc3c(NCc4nc5cc(Cl)c(Cl)cc5[nH]4)nc(N4CCOCC4)nc32)cn1`, the % of control in experiment [1] was 2.67%.

Regarding `COCC(=O)NC/C=C/c1ccc2ncnc(Nc3ccc(Oc4ccc(C)nc4)c(C)c3)c2c1` [CP-724714], the % of control in experiment [2] came out at 100%.

On to `N#Cc1cccc(-c2c[nH]c3ncnc(N4CCOCC4)c23)c1`, for which, in experiment [3], the % of inhibition was -16%. Consider `O=C(NOC[C@H](O)CO)c1ccc(F)c(F)c1Nc1ccc(I)cc1F`, for which, in experiment [4], the % of control worked out at 84%. Take `CNC(=O)Nc1ccc(-c2nc(N3CC4CCC(C3)O4)c3cnn(C4CCC5(CC4)OCCO5)c3n2)cc1`: the values for the % of control in experiment [5] and in [6] were 95% and 100%, respectively. For the compound `CC[C@@H]1[C@H](F)C(=O)N[C@@H]1COc1nccc2cc(C(N)=O)c(OC)cc12` [ZIMLOVISERTIB], the % of inhibition is 2.51% in [7]; 12.8% in [8] (at 0.01 µM); -4.2% in [8] (at 0.04 µM); 5.4% in [8] (at 0.2 µM); 6% in experiment [8] (at 1 µM); 2.2% in [8] (at 5 µM). Moreover, the % of inhibition in experiment [9] was found to be 13.8%. For `CN(C)CCOc1ccc(-c2nc(-c3ccncc3)c(-c3ccc4c(c3)CC/C4=N\O)[nH]2)cc1`, in experiment [10], the % of control is 70%. In [11], `O[C@H]1CC[C@H](Nc2ncc3nc(Nc4c(F)cc(F)cc4F)n([C@H]4CCOC4)c3n2)CC1` displayed a % of control of 100%. On to `CCC(=O)N1CCN(c2ccc(-n3c(=O)ccc4cnc5ccc(-c6cnc7ccccc7c6)cc5c43)cc2C(F)(F)F)CC1`, for which the % of control in experiment [12] is 65%.

Turning to `COc1cc(N(C)c2ccnc3ccc(C(F)(F)F)cc23)cc(OC)c1OC`, the % binding in [13] came out at 85%.

Source of the values: ChEMBL document CHEMBL5465560, “Selectivity Literature for EUbOPEN Chemogenomic Library” (2024).
